Measured values: PMC12200682 (PLOS One, 2025)

How the values were obtained:
Capan-1 = assay: Cell viability assay, Capan-1; format: cell-based; settings: Homo sapiens, CAPAN-1, 144 h, read-out: IC50 cytotoxicity
Method: (§1) Cells were seeded into 96-well plates at 1500 cells/well for SK-BR-3, JIMT-1, and NCI-N87, 800 cells/well for HCC1954, 600 cells/well for AGS and MKN-45, 2500 cells/well for MDA-MB-468 and Capan-1, and 1000 cells/well for SNU-16. After overnight incubation, a serially diluted solution of compounds or ADCs was added. Cell viability was evaluated after 6 days using CellTiter-Glo reagent (Promega) according to the manufacturer’s instructions. Luminescence was measured by PHERAstar (BMG LABTECH).

[1] = Toxicokinetics in cynomolgus monkeys; format: in vivo; settings: for half-life: both sexes, cynomolgus monkey, in vivo, iv, 40 mg/kg
Method: GLP toxicology and toxicokinetics studies were outsourced to Shanghai InnoStar Bio-tech Co., Ltd. Studies were approved by InnoStar’s Institutional Animal Care and Use Committee and carried out in compliance with ARRIVE guidelines. Cynomolgus monkeys were housed in stainless steel cages at the study institution. The temperature and relative humidity of the room were recorded twice a day with ranged from 18 to 26°C and 40–70%, respectively. Ventilation was constantly operated with ≥ 8 times of air changes per hour. […] Monkey maintenance feed was purchased from qualified supplier with microorganisms, heavy metals and pesticide residues tested. During the study, all animals had ad libitum access to feed and clean deionized water except during specific fasting. […] All animals were acclimated to temperature and relative humidity-controlled environment for few days before randomization. Detailed clinical observation was performed on all cynomolgus monkeys once a day during the acclimation period. All of the animal care staff were trained to maximal reduce the pain of animals. Special training such as animal handling, proper injection for treatment/anesthesia, and painless death were taught to the staff.
Clinical signs, body weight, food consumption, and clinical pathology were monitored twice a day. […] Humane endpoint criteria were observed twice a day during study to examine health and behavior. Animals were sacrificed in less than a day once reached endpoint criteria. There were no unexpected animal deaths during the studies with 16-weeks duration. All of the animals were euthanized by intravenous injection of combination of zoletil and xylazine at the end of study for targeted organ and tissue examinations to evaluate toxicity or when the following humane endpoints were reached: severe injury, severe respiratory depression, severe weight loss, persistent anorexia, significant pain or stress, progressive pain leading to weakness, and persistent or continuous twitching. Final disposal of each animal was recorded on the study records.

AGS = assay: Cell viability assay, AGS; format: cell-based; settings: Homo sapiens, 144 h, read-out: IC50 cytotoxicity
Method: as §1

HCC1954 = assay: Cell viability assay, HCC1954; format: cell-based; settings: Homo sapiens, HCC1954, 144 h, read-out: IC50 cytotoxicity
Method: as §1

nine cancer cell lines = assay: Cell viability assay, panel of nine cancer cell lines; format: cell-based; settings: Homo sapiens; independent of HER2 expression levels; read-out: IC50 values across nine cancer cell lines
Method: as §1

MDA-MB-468 = assay: Cell viability assay, MDA-MB-468; format: cell-based; settings: Homo sapiens, MDA-MB-468, 144 h, read-out: IC50 cytotoxicity
Method: as §1

SK-BR-3 = assay: Cell viability assay, SK-BR-3; format: cell-based; settings: Homo sapiens, SK-BR-3, 144 h, read-out: IC50 cytotoxicity
Method: as §1

[2] = Parallel artificial membrane permeability (PAMPA) assay; format: in vitro ADME
Method: PAMPA assay was outsourced to Wuxi Apptech Co. Ltd. Briefly, donor plate, acceptor plate and receiver plate formed a sandwich and 200 µL of 5.0 µM donor solutions were added. The concentrations of compounds in both plates were measured by a LC-MS/MS system after 30 minutes. The permeability coefficient (Peff, nm/s) values at pH 5 and 7.4 were calculated.

human topoisomerase I = biological target: T1, human topoisomerase I (Homo sapiens, UniProt P11387); assay: Topoisomerase I inhibition assay; format: biochemical; settings: read-out: Top I inhibition (IC50)
T1 construct: purchased Inspiralis
T1 sequence (P11387 1-765): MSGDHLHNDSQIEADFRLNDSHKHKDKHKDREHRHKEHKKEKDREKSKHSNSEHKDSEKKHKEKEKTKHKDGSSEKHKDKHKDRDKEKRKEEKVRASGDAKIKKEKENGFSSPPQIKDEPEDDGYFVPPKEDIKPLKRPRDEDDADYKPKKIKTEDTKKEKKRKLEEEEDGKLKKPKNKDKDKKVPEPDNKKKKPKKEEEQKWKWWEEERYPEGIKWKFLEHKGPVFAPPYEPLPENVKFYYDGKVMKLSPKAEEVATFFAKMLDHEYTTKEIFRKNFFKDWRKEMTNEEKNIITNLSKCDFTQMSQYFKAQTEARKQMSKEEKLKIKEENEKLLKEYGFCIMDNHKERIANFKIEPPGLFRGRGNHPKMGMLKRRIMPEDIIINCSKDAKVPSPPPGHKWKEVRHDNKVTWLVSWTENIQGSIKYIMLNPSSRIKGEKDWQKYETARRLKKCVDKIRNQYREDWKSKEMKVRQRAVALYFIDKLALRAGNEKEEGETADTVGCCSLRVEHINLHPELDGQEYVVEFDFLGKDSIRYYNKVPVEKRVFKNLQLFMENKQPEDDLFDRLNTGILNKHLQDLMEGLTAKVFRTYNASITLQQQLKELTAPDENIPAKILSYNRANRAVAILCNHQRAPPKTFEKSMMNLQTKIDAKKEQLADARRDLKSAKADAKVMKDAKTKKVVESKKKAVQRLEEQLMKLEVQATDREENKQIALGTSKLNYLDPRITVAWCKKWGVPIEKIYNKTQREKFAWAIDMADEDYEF
Method: Topoisomerase I inhibition assay was outsourced to Wuxi Apptech Co. Ltd. Topoisomerase I activity was measured using human topoisomerase I microplate assay kit (Inspiralis), according to the manufacturer’s instructions.

[3] = Lipophilicity assay (chromatographic LogD); format: physicochemical; settings: pH 7.4
Method: Distribution coefficient (LogD, pH 7.4) was obtained by a high-throughput alternative method. Each compound was dissolved in DMSO at 10 mM. After centrifugation, the solution was measured by reversed-phase HPLC on a C18 column (50 × 4.6 mm, […] Gemini C18, Phenomenex) at pH 7.4, using fast gradient acetonitrile-aqueous buffer mobile phases. The lipophilicity was estimated from a calibration curve using six reference compounds by plotting their respectively measured retention time versus LogD in literature. The chromatographic LogD values were derived directly from the gradient retention time by using this calibration curve.

JIMT-1 = assay: Cell viability assay, JIMT-1; format: cell-based; settings: Homo sapiens, JIMT-1, 144 h, read-out: IC50 cytotoxicity
Method: as §1

[4] = Pharmacokinetics of payload in mice; design: species or system C57BL/6 mice; settings: C57BL/6, mouse, in vivo, iv, 0.5 mg/kg
Method: All animal experiments at Shanghai Hengrui were approved by Shanghai Hengrui’s Institutional Animal Care and Use Committee. Studies were performed in accordance with ARRIVE guidelines. C57BL/6 mice (15–18 g body weight, n = 18) were purchased from Beijing Vital River Laboratory Animal Technology Co., Ltd and were held as described in details of mouse xenograft section. Compounds were administered intravenously at 0.5 mg/kg. Blood samples were collected at various time points after dosing. Mice were monitored daily for health condition and humane endpoint criteria. There were no unexpected animal deaths or humane endpoint criteria reached during the study. All of the animals were euthanized by using inhaled carbon dioxide at the end of study. The compound concentrations were determined by SCIEX Triple Quad 7500 LC-MS/MS System (SCIEX).

NCI-N87 = assay: Cell viability assay, NCI-N87; format: cell-based; settings: Homo sapiens, NCI-N87, 144 h, read-out: IC50 cytotoxicity
Method: as §1

MKN45 = assay: Cell viability assay, MKN45; format: cell-based; settings: Homo sapiens, MKN-45, 144 h, read-out: IC50 cytotoxicity
Method: as §1

**Q.** For `CC[C@@]1(O)C(=O)OCc2c1cc1n(c2=O)Cc2c-1nc1cc(F)c(C)c3c1c2[C@@H](NC(=O)[C@H](O)C1CC1)CC3` [SHR169265], which IC50 (Capan-1) is on record?
**A.** Its IC50 is 0.38 ± 0.07 nM.

**Q.** And the RacAUCINF ([1]; analyte after SHR-A1811 40 mg/kg i.v. every 3 weeks, Multiple vs single)?
**A.** Its RacAUCINF is 1.07.

**Q.** What about the half-life ([1]; analyte after SHR-A1811 40 mg/kg i.v. every 3 weeks, Multiple) of the same compound?
**A.** The half-life was 101 h.

**Q.** And the half-life ([1]; analyte after SHR-A1811 40 mg/kg i.v., Single)?
**A.** Its half-life is 107 h.

**Q.** What about the IC50 (AGS) of the same compound?
**A.** The IC50 was 0.36 ± 0.11 nM.

**Q.** And the IC50 (HCC1954)?
**A.** The IC50 was 0.55 ± 0.19 nM.

**Q.** And the IC50 (nine cancer cell lines)?
**A.** Its IC50 is 0.3 to 2.32 nM.

**Q.** And the IC50 (MDA-MB-468)?
**A.** Its IC50 is 0.56 ± 0.09 nM.

**Q.** And the IC50 (SK-BR-3)?
**A.** The IC50 was 0.58 ± 0.1 nM.

**Q.** What about the Papp at 30 min, 5 µM ([2]; pH 5) of the same compound?
**A.** Its Papp at 30 min, 5 µM is 13.8 ×10⁻⁶ cm/s.

**Q.** And the Papp at 30 min, 5 µM ([2]; pH 7.4)?
**A.** The Papp at 30 min, 5 µM was 7.16 ×10⁻⁶ cm/s.

**Q.** And the IC50 (human topoisomerase I)?
**A.** The IC50 was 1340 nM.

**Q.** And the chromatographic logD [3]?
**A.** The chromatographic logD was 1.89.

**Q.** What about the IC50 (JIMT-1) of the same compound?
**A.** The IC50 was 2.32 ± 0.45 nM.

**Q.** What about the AUC(0-t) [4] of the same compound?
**A.** The AUC(0-t) was 113 ng·h/mL.

**Q.** And the Cmax [4]?
**A.** Its Cmax is 250 ng/mL.

**Q.** What about the Vd [4] of the same compound?
**A.** The Vd was 1.81 L/kg.

**Q.** What about the clearance [4] of the same compound?
**A.** Its clearance is 72.6 mL/min/kg.

**Q.** What about the half-life ([4]; mice, i.v. injection) of the same compound?
**A.** Its half-life is 0.37 h.

**Q.** What about the IC50 (NCI-N87) of the same compound?
**A.** Its IC50 is 1 ± 0.07 nM.

**Q.** What about the IC50 (MKN45) of the same compound?
**A.** The IC50 was 0.3 ± 0.07 nM.
